In PMC6345968, “Structural basis for species-selective targeting of Hsp90 in a pathogenic fungus” (Nature Communications, 2019):
Where two headings read alike, the source gives them in different places. One block for each compound: values may come before it.

Key:
[1] = system: Hsp90 in HEPG2 lysate; conditions: for EC50: Human lysate; for FP signal (raw) / FP signal: HepG2 lysate; for FP signal: raw
[2] = target: T1, Hsp90 in C. albicans (SC5314) lysate (Candida albicans, UniProt P46598); experiment: biochemical; type: binding; conditions: for FP signal: raw
T1 construct: endogenous in cells; host or cells: C. albicans SC5314 whole-cell lysate

[3] = SC5314 lysate, 0.457 nM compound
[4] = SC5314 lysate, 1.372 nM compound
[5] = SC5314 lysate, 4.115 nM compound
[6] = SC5314 lysate, […] nM compound
[7] = SC5314 lysate, 37.037 nM compound
[8] = SC5314 lysate, 111.111 nM compound
[9] = SC5314 lysate, 333.333 nM compound
[10] = SC5314 lysate, 1000 nM compound
[11] = SC5314 lysate, 3000 nM compound

T1 sequence (P46598 whole entry): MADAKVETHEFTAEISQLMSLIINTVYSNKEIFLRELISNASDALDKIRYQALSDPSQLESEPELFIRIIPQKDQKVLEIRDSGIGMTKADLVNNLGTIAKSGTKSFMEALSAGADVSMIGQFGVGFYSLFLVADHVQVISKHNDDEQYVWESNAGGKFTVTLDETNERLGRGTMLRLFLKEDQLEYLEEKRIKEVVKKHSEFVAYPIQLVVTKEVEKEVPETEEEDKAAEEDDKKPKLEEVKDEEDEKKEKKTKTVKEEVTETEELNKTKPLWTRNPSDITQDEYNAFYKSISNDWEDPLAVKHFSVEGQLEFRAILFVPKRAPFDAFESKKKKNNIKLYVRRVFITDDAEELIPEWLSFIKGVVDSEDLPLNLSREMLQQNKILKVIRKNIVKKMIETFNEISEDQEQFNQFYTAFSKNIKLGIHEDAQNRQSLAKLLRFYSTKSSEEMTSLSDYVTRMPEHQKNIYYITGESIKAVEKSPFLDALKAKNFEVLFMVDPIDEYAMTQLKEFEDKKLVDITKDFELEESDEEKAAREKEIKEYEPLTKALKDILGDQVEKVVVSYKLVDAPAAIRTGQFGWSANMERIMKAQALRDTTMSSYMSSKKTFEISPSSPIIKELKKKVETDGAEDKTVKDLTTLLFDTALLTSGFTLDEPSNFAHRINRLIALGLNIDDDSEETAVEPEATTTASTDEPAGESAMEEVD

SMILES: CC1(C)CC(=O)c2c(C(F)(F)F)nn(-c3ccc(C(N)=O)c(N[C@H]4CC[C@H](O)CC4)c3)c2C1 [SNX]
EC50 ([1]; read-out: FP EC50, rounded summary): 40.1 nM

Ratio re. GdA ([2]; EC50 relative to GdA, SC5314 lysate): 79.2475
FP signal (raw) ([2]; SC5314 lysate, 0.457 nM): 204
FP signal relative to 0 nM [2, 3]: 1.02
FP signal [2, 3]: 204
FP signal (raw) ([2]; SC5314 lysate, 1.372 nM): 206
FP signal relative to 0 nM [2, 4]: 1.03
FP signal [2, 4]: 206
FP signal (raw) ([2]; SC5314 lysate, 4.115 nM): 205
FP signal relative to 0 nM [2, 5]: 1.025
FP signal [2, 5]: 205
FP signal (raw) ([2]; SC5314 lysate, […] nM): 200
FP signal relative to 0 nM [2, 6]: 1
FP signal [2, 6]: 200
FP signal (raw) ([2]; SC5314 lysate, 37.037 nM): 198
FP signal relative to 0 nM [2, 7]: 0.99
FP signal [2, 7]: 198
FP signal (raw) ([2]; SC5314 lysate, 111.111 nM): 193
FP signal relative to 0 nM [2, 8]: 0.965
FP signal [2, 8]: 193
FP signal (raw) ([2]; SC5314 lysate, 333.333 nM): 171
FP signal relative to 0 nM [2, 9]: 0.855
FP signal [2, 9]: 171
FP signal (raw) ([2]; SC5314 lysate, 1000 nM): 116
FP signal relative to 0 nM [2, 10]: 0.58
FP signal [2, 10]: 116
FP signal (raw) ([2]; SC5314 lysate, 3000 nM): 52
FP signal relative to 0 nM [2, 11]: 0.26
FP signal [2, 11]: 52
HepG2/SC5314 ([2]; ratio of GdA-normalized EC50s, human over fungal lysate): 1.707
HepG2/SC5314 ([2]; ratio of GdA-relative EC50 ratios, HepG2 over SC5314): 1.707
SMILES: COc1ccc(CON=C2C=CC=CC3OC3CC(C)OC(=O)c3c(O)cc(O)c(Cl)c3C2)cc1 (mixture of isomers) [compound 224]
Ratio rel. GdA (HepG2) ([1]; EC50 / EC50 of GdA in HepG2 lysate): 135.257
Ratio rel. GdA (HepG2) ([1]; EC50 relative to GdA, HEPG2 lysate): 135.257
FP signal, Fxn Control ([1]; HEPG2 lysate, log concentration 0.137354 (1.372 nM)): 1.005
FP signal, Fxn Control ([1]; HEPG2 lysate, log concentration 0.61437 (4.115 nM)): 0.9952
FP signal, Fxn Control ([1]; HEPG2 lysate, log concentration 1.09153 (12.346 nM)): 1.01
FP signal, Fxn Control ([1]; HEPG2 lysate, log concentration 1.56864 (37.037 nM)): 1.014
FP signal, Fxn Control ([1]; HEPG2 lysate, log concentration 2.04576 (111.111 nM)): 1.005
FP signal, Fxn Control ([1]; HEPG2 lysate, log concentration 2.52288 (333.333 nM)): 0.9952
FP signal, Fxn Control ([1]; HEPG2 lysate, log concentration 3 (1000 nM)): 0.8702
FP signal, Fxn Control ([1]; HEPG2 lysate, log concentration 3.47712 (3000 nM)): 0.5048
FP signal, Fxn Control ([1]; HEPG2 lysate, log concentration -0.340084 (0.457 nM)): 0.9904
FP signal (raw) ([1]; 0.457 nM): 206
FP signal ([1]; 0.457 nM compound): 206
FP signal (raw) ([1]; 1.372 nM): 209
FP signal ([1]; 1.372 nM compound): 209
FP signal (raw) ([1]; 4.115 nM): 207
FP signal ([1]; 4.115 nM compound): 207
FP signal (raw) ([1]; […] nM): 210
FP signal ([1]; […] nM compound): 210
FP signal (raw) ([1]; 37.037 nM): 211
FP signal ([1]; 37.037 nM compound): 211
FP signal (raw) ([1]; 111.111 nM): 209
FP signal ([1]; 111.111 nM compound): 209
FP signal (raw) ([1]; 333.333 nM): 207
FP signal ([1]; 333.333 nM compound): 207
FP signal (raw) ([1]; 1000 nM): 181
FP signal ([1]; 1000 nM compound): 181
FP signal (raw) ([1]; 3000 nM): 105
FP signal ([1]; 3000 nM compound): 105

SMILES: CCNC(=O)c1noc(-c2cc(C(C)C)c(O)cc2O)c1-c1ccc(CN2CCOCC2)cc1 [AUY9222]
EC50 ([1]; refit block, unit inferred): 6.26 nM
